Source: patent publication US10238670B2, “9-aminomethyl minocycline compounds and methods of use thereof in urinary tract infection (UTI) treatment” (Paratek Pharmaceuticals, Inc., priority 2016, dated 2019)

Legend:
Test in all cases: In vitro MIC, 2010 surveillance isolates
E. coli ESBL− = assay type: cell-based, Escherichia coli; conditions: for % R (resistance): Eucast breakpoints
E. coli ESBL+ = assay type: cell-based, Escherichia coli; conditions: for % R (resistance): Eucast breakpoints
K. pneumoniae ESBL− = assay type: cell-based, Klebsiella pneumoniae
K. pneumoniae ESBL+ = assay type: cell-based, Klebsiella pneumoniae; conditions: for % R (resistance): Eucast breakpoints
K. oxytoca = assay type: cell-based; conditions: for % R (resistance): Eucast breakpoints
E. cloacae CeftazS = assay type: cell-based; conditions: for % R (resistance): Eucast breakpoints
E. cloacae CeftazR = assay type: cell-based; conditions: for % R (resistance): Eucast breakpoints
Enterobacter spp = assay type: cell-based; conditions: for % R (resistance): Eucast breakpoints
A. baumanii = assay type: cell-based
Acinetobacter spp = assay type: cell-based
MSSA = assay type: cell-based
MRSA = assay type: cell-based
MS CoNS = assay type: cell-based, Coagulase-Negative Staphylococcus
MR CoNS = assay type: cell-based, Coagulase-Negative Staphylococcus
E. faecalis VS = assay type: cell-based
E. faecalis VNS = assay type: cell-based
E. faecium VS = assay type: cell-based; conditions: for % R (resistance): Eucast breakpoints
E. faecium VNS = assay type: cell-based; conditions: for % R (resistance): Eucast breakpoints

amoxicillin-clavulanic acid [Amox/clav]
% R (resistance) (E. coli ESBL−; Asia/Pac): 14.2%
MIC90 (E. coli ESBL−; Asia/Pac, N=282): > 8 µg/mL
% R (resistance) (E. coli ESBL−; Europe): 17.7%
MIC90 (E. coli ESBL−; Europe, N=1533): > 8 µg/mL
MIC90 (E. coli ESBL−; L. Amer, N=389): > 8 µg/mL
MIC90 (E. coli ESBL−; N America, N=1172): > 8 µg/mL
% R (resistance) (E. coli ESBL+; Asia/Pac): 39.3%
MIC90 (E. coli ESBL+; Asia/Pac, N=219): > 8 µg/mL
% R (resistance) (E. coli ESBL+; Europe): 70.1%
MIC90 (E. coli ESBL+; Europe, N=274): > 8 µg/mL
MIC90 (E. coli ESBL+; L. Amer, N=168): > 8 µg/mL
MIC90 (E. coli ESBL+; N America, N=134): > 8 µg/mL
% R (resistance) (K. pneumoniae ESBL−; Asia/Pac, Eucast breakpoints): 3.7%
MIC90 (K. pneumoniae ESBL−; Asia/Pac, N=189): 8 µg/mL
% R (resistance) (K. pneumoniae ESBL−; Europe, Eucast breakpoints): 7.2%
MIC90 (K. pneumoniae ESBL−; Europe, N=361): 8 µg/mL
MIC90 (K. pneumoniae ESBL−; L. Amer, N=160): 8 µg/mL
% R (resistance) (K. pneumoniae ESBL−; N America, CLSI breakpoints): 0%
MIC90 (K. pneumoniae ESBL−; N America, N=671): 4 µg/mL
% R (resistance) (K. pneumoniae ESBL+; Asia/Pac): 72.6%
MIC90 (K. pneumoniae ESBL+; Asia/Pac, N=124): > 8 µg/mL
% R (resistance) (K. pneumoniae ESBL+; Europe): 84.1%
MIC90 (K. pneumoniae ESBL+; Europe, N=151): > 8 µg/mL
MIC90 (K. pneumoniae ESBL+; L. Amer, N=209): > 8 µg/mL
MIC90 (K. pneumoniae ESBL+; N America, N=108): > 8 µg/mL
% R (resistance) (K. oxytoca; Asia/Pac): 23.5%
MIC90 (K. oxytoca; Asia/Pac, N=17): > 8 µg/mL
% R (resistance) (K. oxytoca; Europe): 14.6%
MIC90 (K. oxytoca; Europe, N=158): > 8 µg/mL
MIC90 (K. oxytoca; L. Amer, N=25): > 8 µg/mL
MIC90 (K. oxytoca; N America, N=177): > 8 µg/mL
% R (resistance) (E. cloacae CeftazS; Asia/Pac): 94%
MIC90 (E. cloacae CeftazS; Asia/Pac, N=100): > 8 µg/mL
% R (resistance) (E. cloacae CeftazS; Europe): 92.3%
MIC90 (E. cloacae CeftazS; Europe, N=183): > 8 µg/mL
MIC90 (E. cloacae CeftazS; L. Amer, N=57): > 8 µg/mL
MIC90 (E. cloacae CeftazS; N America, N=210): > 8 µg/mL
% R (resistance) (E. cloacae CeftazR; Asia/Pac): 100%
MIC90 (E. cloacae CeftazR; Asia/Pac, N=63): > 8 µg/mL
% R (resistance) (E. cloacae CeftazR; Europe): 100%
MIC90 (E. cloacae CeftazR; Europe, N=72): > 8 µg/mL
MIC90 (E. cloacae CeftazR; L. Amer, N=42): > 8 µg/mL
MIC90 (E. cloacae CeftazR; N America, N=77): > 8 µg/mL
% R (resistance) (Enterobacter spp; Asia/Pac): 96.2%
MIC90 (Enterobacter spp; Asia/Pac, N=52): > 8 µg/mL
% R (resistance) (Enterobacter spp; Europe): 91.5%
MIC90 (Enterobacter spp; Europe, N=82): > 8 µg/mL
MIC90 (Enterobacter spp; L. Amer, N=42): > 8 µg/mL
MIC90 (Enterobacter spp; N America, N=101): > 8 µg/mL
MIC90 (A. baumanii; Asia/Pac, N=275): > 8 µg/mL
MIC90 (A. baumanii; Europe, N=145): > 8 µg/mL
MIC90 (A. baumanii; L. Amer, N=275): > 8 µg/mL
MIC90 (A. baumanii; N America, N=154): > 8 µg/mL
MIC90 (Acinetobacter spp; Europe, N=43): > 8 µg/mL
MIC90 (Acinetobacter spp; N America, N=42): > 8 µg/mL
% R (resistance) (MSSA; Asia/Pac, Eucast breakpoints): 0%
MIC90 (MSSA; Asia/Pac, N=641): ≤ 1 µg/mL
% R (resistance) (MSSA; Europe, Eucast breakpoints): 0%
MIC90 (MSSA; Europe, N=2109): ≤ 1 µg/mL
% R (resistance) (MSSA; L. Amer, CLSI breakpoints): 0%
MIC90 (MSSA; L. Amer, N=590): ≤
% R (resistance) (MSSA; N America, CLSI breakpoints): 0.1%
MIC90 (MSSA; N America, N=2373): ≤ 1 µg/mL
% R (resistance) (MRSA; Asia/Pac, Eucast breakpoints): 100%
MIC90 (MRSA; Asia/Pac, N=428): > 8 µg/mL
% R (resistance) (MRSA; Europe, Eucast breakpoints): 100%
MIC90 (MRSA; Europe, N=750): > 8 µg/mL
% R (resistance) (MRSA; L. Amer, CLSI breakpoints): 100%
MIC90 (MRSA; L. Amer, N=506): > 8 µg/mL
% R (resistance) (MRSA; N America, CLSI breakpoints): 100%
MIC90 (MRSA; N America, N=2508): > 8 µg/mL
% R (resistance) (MS CoNS; Asia/Pac, Eucast breakpoints): 0%
MIC90 (MS CoNS; Asia/Pac, N=18): ≤ 1 µg/mL
% R (resistance) (MS CoNS; Europe, Eucast breakpoints): 0%
MIC90 (MS CoNS; Europe, N=185): ≤ 1 µg/mL
% R (resistance) (MS CoNS; L. Amer, CLSI breakpoints): 0%
MIC90 (MS CoNS; L. Amer, N=67): ≤ 1 µg/mL
% R (resistance) (MS CoNS; N America, CLSI breakpoints): 0%
MIC90 (MS CoNS; N America, N=191): ≤ 1 µg/mL
% R (resistance) (MR CoNS; Asia/Pac, Eucast breakpoints): 100%
MIC90 (MR CoNS; Asia/Pac, N=77): > 8 µg/mL
% R (resistance) (MR CoNS; Europe, Eucast breakpoints): 100%
MIC90 (MR CoNS; Europe, N=510): > 8 µg/mL
% R (resistance) (MR CoNS; L. Amer, CLSI breakpoints): 100%
MIC90 (MR CoNS; L. Amer, N=301): > 8 µg/mL
% R (resistance) (MR CoNS; N America, CLSI breakpoints): 100%
MIC90 (MR CoNS; N America, N=461): 8 µg/mL
% R (resistance) (E. faecalis VS; Asia/Pac, Eucast breakpoints): 0%
MIC90 (E. faecalis VS; Asia/Pac, N=214): ≤ 1 µg/mL
% R (resistance) (E. faecalis VS; Europe, Eucast breakpoints): 0%
MIC90 (E. faecalis VS; Europe, N=669): ≤ 1 µg/mL
% R (resistance) (E. faecalis VS; L. Amer, CLSI breakpoints): 0%
MIC90 (E. faecalis VS; L. Amer, N=290): ≤ 1 µg/mL
% R (resistance) (E. faecalis VS; N America, CLSI breakpoints): 0%
MIC90 (E. faecalis VS; N America, N=863): ≤ 1 µg/mL
range of MICs (N <10, shown instead of MIC90) (E. faecalis VNS; Asia/Pac, N=1): ≤1
% R (resistance) (E. faecalis VNS; Europe, Eucast breakpoints): 0%
range of MICs (N <10, shown instead of MIC90) (E. faecalis VNS; Europe, N=8): ≤1-2
% R (resistance) (E. faecalis VNS; L. Amer, CLSI breakpoints): 0%
range of MICs (N <10, shown instead of MIC90) (E. faecalis VNS; L. Amer, N=7): ≤1-2
% R (resistance) (E. faecalis VNS; N America, CLSI breakpoints): 0%
MIC90 (E. faecalis VNS; N America, N=38): ≤ 1 µg/mL
% R (resistance) (E. faecium VS; Asia/Pac): 91.5%
MIC90 (E. faecium VS; Asia/Pac, N=106): > 8 µg/mL
% R (resistance) (E. faecium VS; Europe): 93.4%
MIC90 (E. faecium VS; Europe, N=303): > 8 µg/mL
MIC90 (E. faecium VS; L. Amer, N=51): > 8 µg/mL
MIC90 (E. faecium VS; N America, N=115): > 8 µg/mL
% R (resistance) (E. faecium VNS; Asia/Pac): 100%
MIC90 (E. faecium VNS; Asia/Pac, N=24): > 8 µg/mL
% R (resistance) (E. faecium VNS; Europe): 100%
MIC90 (E. faecium VNS; Europe, N=71): > 8 µg/mL
MIC90 (E. faecium VNS; L. Amer, N=41): > 8 µg/mL
MIC90 (E. faecium VNS; N America, N=478): > 8 µg/mL
